Measurements as given in ChEMBL document CHEMBL4732159, “Discovery of 6-Oxo-4-phenyl-hexanoic acid derivatives as RORγt inverse agonists showing favorable ADME profile” (Bioorg Med Chem Lett, 2021).

What was measured:
[1] = Intrinsic clearance in human liver microsomes
[2] = Intrinsic clearance in mouse liver microsome; conditions: microsomes
[3] = Protein binding in human plasma
[4] = Protein binding in mouse plasma
[5] = Apparent permeability across apical to basal membrane in human Caco-2 cells
[6] = Apparent permeability across basal to apical membrane in human Caco-2 cells
[7] = Clearance in mouse at 2 umol/kg, po or 1 umol/kg, iv; conditions: in vivo
[8] = Half life in mouse at 1 umol/kg, iv; conditions: in vivo
[9] = Half life in mouse at 2 umol/kg, po; conditions: in vivo
[10] = in vivo; conditions: mouse, po, 2 umol/kg
[11] = in vivo; conditions: mouse, po, 2 umol/kg; remark: listed apart in the source

Row | CLH [1] | CLH [2] | fraction unbound [3] | fraction unbound [4] | Papp A→B [5] | Papp B→A [6] | clearance [7] | half-life [8] | half-life [9] | bioavailability [10] | AUC [11] | SMILES
1 | 21 µL/min/mg |  |  |  |  |  |  |  |  |  |  | Cc1c(CN2CCN(C(=O)C3CCCC3)[C@@H](C)C2)cc(F)cc1NC(=O)CC(CCC(=O)O)c1ccccc1 (stereo in doubt; 6b)
2 | 1900 µL/min/mg |  |  |  |  |  |  |  |  |  |  | Cc1c(CN2CCN(C(=O)C3CCCC3)[C@@H](C)C2)cc(F)cc1NC(=O)CCc1ccccc1
3 | < 10 µL/min/mg |  |  |  |  |  |  |  |  |  |  | C[C@H]1CN(Cc2cc(Cl)cc(NC(=O)CC(CCC(=O)O)c3ccccc3)c2Cl)CCN1C(=O)C1CCCC1 (stereo in doubt; 12b)
4 | < 10 µL/min/mg | 17 µL/min/mg | 0.006 | 0.028 | 13 nm/s | 390 nm/s | 4.6 L/h/kg | 1.2 h | 1.5 h | 46% | 200 nM·h | Cc1c(CN2CCN(C(=O)C3CCCC3)[C@@H](C)C2)cc(F)cc1NC(=O)CC(CCC(=O)O)c1ccccc1 (stereo in doubt; 6a)
5 | 31 µL/min/mg | < 10 µL/min/mg | 0.003 | 0.006 | 130 nm/s | 450 nm/s | 0.52 L/h/kg | 1.5 h | 1.5 h | 100% | 4000 nM·h | C[C@H]1CN(Cc2cc(Cl)cc(NC(=O)CC(CCC(=O)O)c3ccccc3)c2Cl)CCN1C(=O)C1CCCC1 (stereo in doubt; 12a)
